# According to patent publication US10208040B2, “Fused imidazo-piperidine JAK inhibitors” (THERAVANCE BIOPHARMA R&D IP, LLC, priority 2017, dated 2019):
# Experiments:
# [1] = target: JAK3 (Homo sapiens (Human), UniProt P52333); assay: Biochemical JAK kinase assay (LanthaScreen), JAK3
# Description: (§1) A panel of four LanthaScreen JAK biochemical assays (JAK1, 2, 3 and Tyk2) were carried in a common kinase reaction buffer (50 mM HEPES, pH 7.5, 0.01% Brij-35, 10 mM MgCl2, and 1 mM EGTA). Recombinant GST-tagged JAK enzymes and a GFP-tagged STAT1 peptide substrate were obtained from Life Technologies.
# (§2) Serially diluted compounds were pre-incubated with each of the four JAK enzymes and the substrate in white 384-well microplates (Corning) at ambient temperature for 1 h. ATP was subsequently added to initiate the kinase reactions in 10 μL total volume, with 1% DMSO. […] The plates were allowed to incubate at ambient temperature for 1 h before being read on the EnVision reader (Perkin Elmer).
# (§3) For dose-response analysis, percent inhibition data were plotted vs. compound concentrations, and IC50 values were determined from a 4-parameter robust fit model with the Prism software (GraphPad Software). Results were expressed as pIC50 (negative logarithm of IC50) and subsequently converted to pKi (negative logarithm of dissociation constant, Ki) using the Cheng-Prusoff equation.
# [2] = tested on: IL-13 induced STAT6 phosphorylation in BEAS-2B human lung epithelial cells; assay: Cellular JAKI potency assay (AlphaScreen, BEAS-2B); type: cell-based; settings: BEAS-2B cells
# Description: The AlphaScreen JAKI cellular potency assay was carried out by measuring interleukin-13 (IL-13, R&D Systems) induced STAT6 phosphorylation in BEAS-2B human lung epithelial cells (ATCC). The anti-STAT6 antibody (Cell Signaling Technologies) was conjugated to AlphaScreen acceptor beads (Perkin Elmer), while the anti-pSTAT6 (pTyr641) antibody (Cell Signaling Technologies) was biotinylated using EZ-Link Sulfo-NHS-Biotin (Thermo Scientific).
# BEAS-2B cells were grown at 37° C. in a 5% CO2 humidified incubator in 50% DMEM/50% F-12 medium (Life Technologies) supplemented with 10% FBS (Hyclone), 100 U/mL penicillin, 100 μg/mL streptomycin (Life Technologies), and 2 mM GlutaMAX (Life Technologies). On day 1 of the assay, cells were seeded at a 7,500 cells/well density in white poly-D-lysine-coated 384-well plates (Corning) with 25 μL medium, and were allowed to adhere overnight in the incubator. On day 2 of the assay, the medium was removed and replaced with 12 μL of assay buffer (Hank's Balanced Salt Solution/HBSS, 25 mM HEPES, and 1 mg/ml bovine serum albumin/BSA) containing dose-responses of test compounds. Compounds were serially diluted in DMSO and then diluted another 1000-fold in media to bring the final DMSO concentration to 0.1%. Cells were incubated with test compounds at 37° C. for 1 h, and followed by the addition of 12 μl of pre-warmed IL-13 (80 ng/mL in assay buffer) for stimulation. After incubating at 37° C. for 30 min, the assay buffer (containing compound and IL-13) was removed, and 10 μL of cell lysis buffer (25 mM HEPES, 0.1% SDS, 1% NP-40, 5 mM MgCl2, 1.3 mM EDTA, 1 mM EGTA, and supplement with Complete Ultra mini protease inhibitors and PhosSTOP from Roche Diagnostics). The plates were shaken at ambient temperature for 30 min before the addition of detection reagents. A mixture of biotin-anti-pSTAT6 and anti-STAT6 conjugated acceptor beads was added first and incubated at ambient temperature for 2 h, followed by the addition of streptavidin conjugated donor beads (Perkin Elmer). After a minimum of 2 h incubation, the assay plates were read on the EnVision plate reader. AlphaScreen luminescence signals were recorded and utilized to calculate the percent inhibition values based on DMSO and background controls.
# For dose-response analysis, percent inhibition data were plotted vs. compound concentrations, and IC50 values were determined from a 4-parameter robust fit model with the Prism software. Results may also be expressed as the negative logarithm of the IC50 value, pIC50.
# Test compounds having a lower IC50 value or higher pIC50 value in this assay show greater inhibition of IL-13 induced STAT6 phosphorylation.
# [3] = target: JAK2 (Homo sapiens (Human), UniProt O60674); assay: Biochemical JAK kinase assay (LanthaScreen), JAK2
# Description: as §1, §2, §3
# [4] = tested on: IL-2/anti-CD3 stimulated IFNγ in human PBMCs; assay: Inhibition of IL-2/anti-CD3 stimulated IFNγ in human PBMCs; type: cell-based; settings: PBMC, read-out: pIC50 inhibition of IL-2/anti-CD3 stimulated IFNγ (converted)
# Description: The potency of the test compound for inhibition of interleukin-2 (IL-2)/anti-CD3 stimulated interferon gamma (IFNγ) was measured in human peripheral blood mononuclear cells (PBMCs) isolated from human whole blood (Stanford Blood Center). Because IL-2 signals through JAK, this assay provides a measure of JAK cellular potency.
# (1) Human peripheral blood mononuclear cells (PBMC) were isolated from human whole blood of healthy donors using a ficoll gradient. Cells were cultured in a 37° C., 5% CO2 humidified incubator in RPMI (Life Technologies) supplemented with 10% Heat Inactivated Fetal Bovine Serum (FBS, Life Technologies), 2 mM Glutamax (Life Technologies), 25 mM HEPES (Life Technologies) and 1× Pen/Strep (Life Technologies). Cells were seeded at 200,000 cells/well in media (50 μL) and cultured for 1 h. Compounds were serially diluted in DMSO and then diluted another 500-fold (to a 2× final assay concentration) in media. Test compounds (100 μL/well) were added to cells, and incubated at 37° C., 5% CO2 for 1 h, followed by the addition of IL-2 (R&D Systems; final concentration 100 ng/mL) and anti-CD3 (BD Biosciences; final concentration 1 μg/mL) in pre-warmed assay media (50 μL) for 24 h.
# (2) After cytokine stimulation, cells were centrifuged at 500 g for 5 min and supernatants removed and frozen at −80° C. To determine the inhibitory potency of the test compound in response to IL-2/anti-CD3, supernatant IFNγ concentrations were measured via ELISA (R&D Systems). IC50 values were determined from analysis of the inhibition curves of concentration of IFNγ vs compound concentration. Data are expressed as pIC50 (negative decadic logarithm IC50) values.
# [5] = target: JAK1 (Homo sapiens (Human), UniProt P23458); assay: Biochemical JAK kinase assay (LanthaScreen), JAK1
# Description: as §1, §2, §3
# [6] = target: Tyk2 (Homo sapiens (Human), UniProt P29597); assay: Biochemical JAK kinase assay (LanthaScreen), Tyk2
# Description: as §1, §2, §3
# Sequence of JAK3 (P52333 whole entry): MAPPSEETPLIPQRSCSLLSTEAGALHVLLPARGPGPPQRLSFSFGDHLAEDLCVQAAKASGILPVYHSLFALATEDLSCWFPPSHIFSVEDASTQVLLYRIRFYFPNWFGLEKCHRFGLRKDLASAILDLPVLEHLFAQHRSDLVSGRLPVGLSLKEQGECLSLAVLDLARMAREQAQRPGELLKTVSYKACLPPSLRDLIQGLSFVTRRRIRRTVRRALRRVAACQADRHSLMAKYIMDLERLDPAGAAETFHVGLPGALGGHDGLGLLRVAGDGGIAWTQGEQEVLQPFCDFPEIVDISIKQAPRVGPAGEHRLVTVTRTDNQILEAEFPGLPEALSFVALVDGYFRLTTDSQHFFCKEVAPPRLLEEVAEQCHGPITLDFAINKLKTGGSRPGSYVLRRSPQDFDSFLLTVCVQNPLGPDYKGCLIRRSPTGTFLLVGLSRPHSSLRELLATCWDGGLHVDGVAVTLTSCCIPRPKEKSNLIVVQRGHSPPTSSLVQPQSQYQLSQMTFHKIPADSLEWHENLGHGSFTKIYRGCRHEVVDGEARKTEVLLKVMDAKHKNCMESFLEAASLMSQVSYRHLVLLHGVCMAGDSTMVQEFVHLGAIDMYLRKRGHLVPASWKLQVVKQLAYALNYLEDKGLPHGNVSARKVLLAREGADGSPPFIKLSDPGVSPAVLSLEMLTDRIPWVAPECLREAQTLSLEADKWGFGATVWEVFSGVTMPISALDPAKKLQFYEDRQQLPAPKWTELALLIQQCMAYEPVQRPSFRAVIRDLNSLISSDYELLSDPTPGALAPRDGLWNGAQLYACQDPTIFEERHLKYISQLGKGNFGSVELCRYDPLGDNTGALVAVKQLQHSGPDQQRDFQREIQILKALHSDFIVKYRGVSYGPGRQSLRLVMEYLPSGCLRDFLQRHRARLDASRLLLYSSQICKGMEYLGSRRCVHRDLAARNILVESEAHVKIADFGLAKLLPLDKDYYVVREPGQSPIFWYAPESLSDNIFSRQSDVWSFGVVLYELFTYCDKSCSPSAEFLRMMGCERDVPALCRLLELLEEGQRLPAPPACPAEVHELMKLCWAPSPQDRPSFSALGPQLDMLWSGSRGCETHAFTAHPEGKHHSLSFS
# Sequence of JAK1 (P23458 whole entry): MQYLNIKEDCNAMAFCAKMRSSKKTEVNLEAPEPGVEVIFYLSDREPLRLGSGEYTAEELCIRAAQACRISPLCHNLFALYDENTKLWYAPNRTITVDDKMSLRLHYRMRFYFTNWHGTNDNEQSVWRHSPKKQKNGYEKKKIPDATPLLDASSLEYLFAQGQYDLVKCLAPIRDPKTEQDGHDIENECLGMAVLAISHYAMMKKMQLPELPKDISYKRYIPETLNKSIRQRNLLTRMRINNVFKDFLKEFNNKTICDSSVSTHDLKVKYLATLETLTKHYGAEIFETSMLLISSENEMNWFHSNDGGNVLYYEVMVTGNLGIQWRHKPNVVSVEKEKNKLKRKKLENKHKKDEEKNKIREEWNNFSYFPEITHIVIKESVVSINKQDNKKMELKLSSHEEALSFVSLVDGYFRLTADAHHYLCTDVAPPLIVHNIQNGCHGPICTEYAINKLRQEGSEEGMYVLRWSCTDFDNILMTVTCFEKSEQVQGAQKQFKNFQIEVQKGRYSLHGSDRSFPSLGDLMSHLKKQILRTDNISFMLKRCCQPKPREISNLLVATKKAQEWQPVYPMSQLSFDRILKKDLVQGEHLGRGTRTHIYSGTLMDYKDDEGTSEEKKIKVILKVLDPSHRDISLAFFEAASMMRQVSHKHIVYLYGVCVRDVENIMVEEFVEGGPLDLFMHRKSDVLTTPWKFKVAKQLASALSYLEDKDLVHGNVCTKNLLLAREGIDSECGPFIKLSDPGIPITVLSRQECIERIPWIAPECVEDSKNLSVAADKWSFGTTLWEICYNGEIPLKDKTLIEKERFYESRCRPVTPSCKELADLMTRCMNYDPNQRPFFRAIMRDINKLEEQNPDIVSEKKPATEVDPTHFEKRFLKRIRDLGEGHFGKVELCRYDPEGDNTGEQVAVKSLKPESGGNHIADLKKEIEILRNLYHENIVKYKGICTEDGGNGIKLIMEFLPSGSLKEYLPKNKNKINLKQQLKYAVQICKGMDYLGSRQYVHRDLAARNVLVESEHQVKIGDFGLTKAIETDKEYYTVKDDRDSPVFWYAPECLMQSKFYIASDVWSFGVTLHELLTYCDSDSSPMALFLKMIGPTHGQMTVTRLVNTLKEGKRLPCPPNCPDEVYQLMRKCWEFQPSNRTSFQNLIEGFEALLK
# Sequence of JAK2 (O60674 whole entry): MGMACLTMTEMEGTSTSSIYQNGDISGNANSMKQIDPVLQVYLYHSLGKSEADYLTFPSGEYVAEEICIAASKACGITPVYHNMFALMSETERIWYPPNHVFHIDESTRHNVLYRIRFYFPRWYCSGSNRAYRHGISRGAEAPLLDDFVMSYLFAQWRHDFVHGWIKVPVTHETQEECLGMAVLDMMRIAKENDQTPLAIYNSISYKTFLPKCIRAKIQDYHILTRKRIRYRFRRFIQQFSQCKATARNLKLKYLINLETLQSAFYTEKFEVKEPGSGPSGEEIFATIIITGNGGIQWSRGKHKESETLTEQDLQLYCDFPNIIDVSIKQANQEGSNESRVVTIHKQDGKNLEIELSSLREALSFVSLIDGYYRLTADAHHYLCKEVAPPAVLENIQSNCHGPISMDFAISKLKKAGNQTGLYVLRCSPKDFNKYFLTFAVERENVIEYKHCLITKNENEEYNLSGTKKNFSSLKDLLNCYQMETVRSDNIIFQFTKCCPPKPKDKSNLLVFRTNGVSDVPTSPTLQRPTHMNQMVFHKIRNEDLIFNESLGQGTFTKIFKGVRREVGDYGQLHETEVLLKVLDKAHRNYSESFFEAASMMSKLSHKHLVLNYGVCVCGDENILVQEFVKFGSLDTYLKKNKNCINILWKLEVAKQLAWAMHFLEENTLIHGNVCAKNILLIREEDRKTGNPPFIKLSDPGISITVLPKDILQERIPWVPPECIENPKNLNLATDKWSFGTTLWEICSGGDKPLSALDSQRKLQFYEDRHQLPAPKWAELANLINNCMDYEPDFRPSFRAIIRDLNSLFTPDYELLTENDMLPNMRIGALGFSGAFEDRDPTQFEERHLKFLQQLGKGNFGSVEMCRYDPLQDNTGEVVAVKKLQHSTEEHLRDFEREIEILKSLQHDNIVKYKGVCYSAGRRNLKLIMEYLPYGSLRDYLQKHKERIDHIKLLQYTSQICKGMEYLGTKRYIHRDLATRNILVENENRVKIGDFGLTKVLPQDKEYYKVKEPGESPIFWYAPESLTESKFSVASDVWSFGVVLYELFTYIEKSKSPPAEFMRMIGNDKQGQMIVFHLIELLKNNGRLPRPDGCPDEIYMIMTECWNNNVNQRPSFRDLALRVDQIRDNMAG
# Sequence of Tyk2 (P29597 whole entry): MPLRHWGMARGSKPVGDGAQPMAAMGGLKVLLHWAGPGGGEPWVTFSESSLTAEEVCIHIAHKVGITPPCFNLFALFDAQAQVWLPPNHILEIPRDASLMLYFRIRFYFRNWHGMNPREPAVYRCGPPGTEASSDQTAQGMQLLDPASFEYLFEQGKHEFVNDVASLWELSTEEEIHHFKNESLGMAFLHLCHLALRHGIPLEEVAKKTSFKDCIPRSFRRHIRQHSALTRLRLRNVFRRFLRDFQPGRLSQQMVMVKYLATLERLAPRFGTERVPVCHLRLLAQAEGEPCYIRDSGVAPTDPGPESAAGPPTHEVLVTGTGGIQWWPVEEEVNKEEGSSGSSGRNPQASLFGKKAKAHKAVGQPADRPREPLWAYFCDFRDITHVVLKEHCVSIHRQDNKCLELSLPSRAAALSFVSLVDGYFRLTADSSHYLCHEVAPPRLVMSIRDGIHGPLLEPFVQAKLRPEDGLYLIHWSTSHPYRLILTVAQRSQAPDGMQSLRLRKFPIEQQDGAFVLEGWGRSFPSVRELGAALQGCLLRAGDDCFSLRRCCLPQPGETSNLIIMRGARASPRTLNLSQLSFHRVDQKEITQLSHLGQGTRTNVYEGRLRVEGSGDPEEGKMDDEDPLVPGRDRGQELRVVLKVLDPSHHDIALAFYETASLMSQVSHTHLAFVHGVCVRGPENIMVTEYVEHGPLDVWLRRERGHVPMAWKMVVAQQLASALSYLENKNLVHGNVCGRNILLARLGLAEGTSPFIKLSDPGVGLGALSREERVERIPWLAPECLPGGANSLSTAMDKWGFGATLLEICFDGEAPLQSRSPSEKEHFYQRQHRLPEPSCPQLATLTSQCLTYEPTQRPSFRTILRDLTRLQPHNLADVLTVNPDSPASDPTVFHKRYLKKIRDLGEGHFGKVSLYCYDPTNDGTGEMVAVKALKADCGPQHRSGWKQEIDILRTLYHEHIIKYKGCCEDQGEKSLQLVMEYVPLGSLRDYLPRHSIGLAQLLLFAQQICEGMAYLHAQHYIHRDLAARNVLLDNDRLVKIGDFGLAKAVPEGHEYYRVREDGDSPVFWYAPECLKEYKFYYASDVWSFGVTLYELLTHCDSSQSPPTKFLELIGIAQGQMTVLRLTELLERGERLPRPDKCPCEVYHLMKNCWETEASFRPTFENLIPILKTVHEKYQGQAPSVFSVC
SMILES,Ki [1],IC50 [2],Ki [3],IC50 [4],Ki [5],Ki [6]
CCc1cc(O)c(F)cc1-c1ccc2c(-c3nc4c([nH]3)CN(C(C)C)[C@H](C(=O)N3CC[C@H](N(C)C)C3)C4)n[nH]c2c1 [Example 3],0.1 nM,5.9 nM,0.02 nM,~63.1 nM,0.06 nM,0.4 nM
CCc1cc(O)c(F)cc1-c1ccc2c(-c3nc4c([nH]3)CN(CC)[C@@H](C(=O)N3CCN(C(C)(C)C)CC3)C4)n[nH]c2c1 [Example 1-37],0.5 nM,5.9 nM,0.04 nM,~63.1 nM,0.1 nM,1.26 nM
"CCCN1Cc2[nH]c(-c3n[nH]c4cc(-c5cc(F)c(O)cc5CC)ccc34)nc2C[C@H]1C(=O)N1C[C@@H]2C[C@H]1CN2C [Example 1, ((S)-2-(6-(2-ethyl-5-fluoro-4-hydroxyphenyl)-1H-indazol-3-yl)-5-propyl-4,5,6,7-tetrahydro-3H-imidazo[4,5-c]pyridin-6-yl)((1S,4S)-5-methyl-2,5-diazabicyclo-[2.2.1]heptan-2-yl)methanone]",0.08 nM,5 nM,0.02 nM,~126 nM,0.05 nM,0.25 nM
